Values joined by “and” are separate entries in the source; they are usually repeats but may differ in a detail not shown here. Equal entries are not always repeated. “Also recorded” adds a separate entry of the source. Where two headings read alike, the source gives them in different places.
Key:
[1] = system: MDA-MB231 cells; assay: CD44/CD24 flow cytometry; type: cell-based, Human; conditions: MDA-MB231, FACS, in words
Experimental: (§1) 5 × 10^4 cells/well were incubated with compounds for 14 days. The ALDH activity of cells was determined by using the ALDEFLUOR assay kit (StemCell Technologies) according to the manufacturer's instructions. Combinations of fluorochrome-conjugated monoclonal antibodies against human CD44-FITC and CD24-PE were obtained from BD Biosciences. Primary antibodies or the respective isotype controls (BD Biosciences) were added to the cell suspension, according to the manufacturer's recommendation, and incubated at 4°C for 20 min. Dead cells were eliminated using propidium iodide (Sigma). The labelled cells were analyzed on a FACS Calibur (BD Biosciences/Applied Biosystems).

[2] = system: A549; assay: Cell proliferation, MTT assay; type: cell-based, Human; conditions: in words
[3] = system: MDA-MB231 cells; assay: Microarray gene set enrichment analysis; type: cell-based, Human; conditions: 1 at 5 μM, 2 at 10 μM, in words
Experimental: 10^5 cells/well were incubated with compounds for 14 days. Cells were lysed immediately in TRIzol® Reagent, frozen in liquid nitrogen, and shipped to Asuragen, Inc. (Austin, TX) for microarray experiments. RNA was isolated, amplified, and hybridized to Illumina Human HT-12 v4 arrays according to the manufacturer's protocol. Microarray data were log2 transformed and then normalized to have the same median for all the arrays. Moderate t-statistics were used to test if genes were differentially expressed between the groups of interest. Benjamini and Hochberg method was used to correct for multiple comparisons. R and Bioconductor packages were used for all the statistical analyses (http://cran.us.r-project.org/, http://www.bioconductor.org/). Gene set enrichment analysis was performed using GSEA software from Broad Institute (Boston, MA).

[4] = in vivo; cited from earlier work
[5] = system: MDA-MB231; assay: Transwell cell migration assay; type: cell-based, Human; conditions: MDA-MB231, Transwell with and without Matrigel, in words
Experimental: 5 × 10^4 cells/well were incubated with compounds for 14 days. For transwell migration assays, 5× 10^4 cells were plated in the top chamber with the non-coated membrane (24-well insert; pore size, […]; BD Biosciences). For invasion assays, 5× 10^4 cells were plated in the top chamber with Matrigel-coated membrane. The cells on the apical side of each insert were then scraped off after 22 h for both assays. The wells were washed with PBS, fixed with 100% methanol and stained with DAPI. Cells that had migrated to the basal side of the membrane were visualized and counted with a Nikon Eclipse TE2000-U microscope at 10×. Pictures of three random fields were obtained and the number of cells that had migrated quantified using ImageJ analysis software.

[6] = system: MDA-MB231 cells; assay: Apoptosis, Annexin V FACS; type: cell-based, Human
Experimental: (§2) For apoptosis and cell cycle analysis, 10^5 cells/well were incubated with increasing concentrations of a compound for 7 or 10 days. Apoptosis was determined using the FITC Annexin V Apoptosis Detection Kit I (BD Bioscience) according to the manufacturer's protocol. Cells for cell cycle analysis were fixed in cold 70% ethanol at 4°C and stained with Propidium iodide (Sigma-Aldrich) (20 μg/ml) and RNase A (10 μg/ml) for 30min. Cells were analyzed using a FACS Calibur (BD Biosciences/Applied Biosystems) and data were processed using the program Flowjo (version7.6.5).

[7] = system: MDA-MB231 cells; assay: Cell cycle analysis, propidium iodide FACS; type: cell-based, Human; conditions: for sub-G1 phase cell population: MDA-MB231, in words
Experimental: as §2

[8] = system: MDA-MB231 cells; assay: ALDEFLUOR assay; type: cell-based, Human; conditions: in words
Experimental: as §1

[9] = system: MDA-MB231 cells; assay: Quantitative PCR of EMT genes; type: cell-based, Human; conditions: MDA-MB231, qPCR, dose-dependent, in words
Experimental: 10^4 cells/well were incubated with compounds for 14 days with media containing compounds replaced every 3-4 days. Total RNA was extracted from cells using RNeasy mini kit (Qiagen). 100-1000 ng of total RNA was reverse transcribed using iScript™ Reverse Transcription Supermix (Bio-Rad) according to the manufacturer's protocol. Quantitative real-time PCR was carried out using the RT^2 SYBR Green ROX™ qPCR Mastermix (Qiagen) according to the manufacturer's instructions. Measurements were performed in triplicate, using GAPDH or human 18S ribosomal RNA as a reference gene. The sequences of primers used are listed in the Supplementary Table. Real-time PCR was performed using the ABI Prism 7300 sequence detection system.

[10] = system: H3K27 methylation; assay: Western blot of histone methylation in MDA-MB231; type: cell-based; conditions: Homo sapiens, MDA-MB-231, Fig. 4b, read-out: IC50 against H3K27 methylation
Experimental: (§3) 10^6 cells/well were incubated with increasing concentrations of a compound for 5 days and histones extracted with the EpiQuik™ Total Histone Extraction Kit (Epigentek) according to the manufacturer's protocol. Equal amounts of histones (2μg) were separated on SDS-PAGE and transferred to PVDF membranes. The blots were probed with primary antibodies, followed by anti-rabbit IgG (Thermo Scientific) secondary antibodies. For western blot analysis of MDA-MB231 xenograft tumors, tumors were harvested and frozen in liquid nitrogen. Histones were extracted and analyzed by immunoblotting as described above.

[11] = system: methylation at H3K4, H3K9, H3K27, H3K36 and H4K20; assay: Western blot of methylation at other histone lysines in MDA-MB231; type: cell-based, Human; conditions: at concentrations of <1 μM, in words
Experimental: as §3

[12] = system: MDA-MB231 xenograft; assay: MDA-MB231 xenograft mouse model; type: in vivo, athymic nude mice; conditions: 4 mg/kg/day for 28 days
Experimental: (§4) Female athymic nude mice (4 to 6 weeks old) were obtained from Charles River (Wilmington, MA, USA) and maintained under pathogen-free conditions. The use of athymic nude mice and their treatment were approved by the BCM Institutional Animal Care and Use Committee, and the experiments were conducted in strict compliance with the regulations. 2 ×10^6 MDA-MB-231 cells were injected into the upper right mammary fat pad of the recipient mouse and tumor growth and animal weights were monitored twice a week. The tumor volumes were calculated using the formula length × (width)^2/2. When the tumors reached a size of about 20–30 mm^3, mice were randomly segregated into control and treatment groups. Mice in the treatment group were implanted subcutaneously an osmotic pumps (Alzet model 2004) containing 2.8 mg of 3 in 200 μL of PBS. Animals were sacrificed when the volumes of tumors reaching ~1.5 cm^3. Log-rank analysis was used to determine statistical significance of the survival curves using Prism 5.0 (GraphPad).

[13] = system: MCF-7; assay: Cell proliferation, MTT assay; type: cell-based; conditions: Homo sapiens
[14] = system: H3K79 methylation; assay: Western blot of xenograft tumor tissues; type: in vivo, athymic nude mice; conditions: day 14, Western blot, in words
Experimental: as §3
as §4, with “Mice in the treatment group were implanted subcutaneously an osmotic pumps (Alzet model 2004) containing 2.8 mg of 3 in 200 μL of PBS. Animals were sacrificed when the volumes of tumors reaching ~1.5 cm^3. Log-rank analysis was used to determine statistical significance of the survival curves using Prism 5.0 (GraphPad).” left out

[15] = target: SAHH; conditions: read-out: Ki against SAHH; cited from earlier work
[16] = system: H3K79 methylation; assay: Western blot of histone methylation in MDA-MB231; type: cell-based, Human; conditions: Homo sapiens, MDA-MB-231, read-out: IC50 of H3K79 methylation inhibition
Experimental: Human cell lines BT549, MDA-MB231, MCF-7, MDA-MB157, HCC70, A549 and NB4 were obtained from the American Type Culture Collection (ATCC) and cultured using ATCC recommended conditions. Primary antibodies against H3K79me2, H3K27me3, H3K4me3, H3K36me2, H4K20me3, H3K9me-pan were purchased from Cell Signaling (Danvers, MA). siRNA experiments were performed by transfecting MDA-MB-231 cells with X-tremeGENE Transfection Reagent (Roche) and 10 nM siRNA (Invitrogen), according to the manufacturer's protocol.
as §3

[17] = system: MDA-MB231; assay: Secondary mammosphere assay; type: cell-based, Human; conditions: MDA-MB231, in words
Experimental: The protocol for mammosphere assay was performed using a published method. The numbers of secondary mammospheres in each well were counted using a Leica MZ12.5 microscope.

[18] = system: MDA-MB231, BT549 and MCF-7 breast cancer cells; assay: Cell proliferation, MTT assay, DOT1L+ breast cancer cells; type: cell-based, Human
[19] = system: BT549; assay: Cell proliferation, MTT assay; type: cell-based; conditions: Homo sapiens
[20] = system: MDA-MB231; assay: Cell proliferation, MTT assay; type: cell-based; conditions: Homo sapiens
[21] = Toxicity in treated mice; type: in vivo
Experimental: as §4

[22] = target: EZH2; conditions: read-out: Ki against EZH2; cited from earlier work
[23] = target: other lysine methyltransferases; conditions: read-out: Ki against other lysine methyltransferases; cited from earlier work

In the case of `CC(C)N(CCCNC(=O)Nc1ccc(C(C)(C)C)cc1)CC1OC(n2cnc3c(N)ncnc32)C(O)C1O` (stereo not drawn) [Compound 2, SYC-522], the “CD44+/CD24− cell population” value [1] is reported as “significantly decreased”, the “cell population expressing high levels of CD24” value [1] is reported as “considerably more cells expressed higher levels of CD24; also recorded: increased cell population” and the “activity against A549 cells” value [2] is reported as “negligible activity”. The “genes whose expression is low in breast CSCs (GSEA)” value [3] was “upregulation”, the “pro-proliferation genes in the PAM50 gene set (GSEA)” value [3] was “downregulation” and the pharmacokinetics [4] was “poor pharmacokinetics with short plasma half-lives”. For the same compound, the “cell migration and invasion” value [5] was “reduced abilities of cell migration and invasion”, the apoptosis ([6]; MDA-MB231, 2 μM, in words) was “negligible amount of apoptosis” and the apoptotic rate ([6]; MDA-MB231, 10 μM) was 7.8% and ~ 8%. For the same compound, the “sub-G1 phase cell population” value [7] was “increased sub-G1 phase cell population; also recorded: moderately increased pre-G phase cell population”, the “ALDH+ cell population” value [8] was “considerably reduced” and the “gene expression of E-cadherin” value [9] was “increase”. For the same compound, the “gene expression of TGF-β, Snail and Zeb” value [9] was “significantly reduce”.

In the case of `Nc1ncnc2c1ncn2[C@@H]1C=C(CO)[C@@H](O)[C@H]1O` [Compound 3, neplanocin A], the IC50 [10] is reported as over 6000 nM, the “CD44+/CD24− cell population” value [1] is reported as “reduced; also recorded: decreased” and the “cell population expressing high levels of CD24” value [1] is reported as “significantly expanded; also recorded: increased cell population expressing high levels of CD24”. For the same compound, the “inhibitory activity against methylation at H3K4, H3K9, H3K27, H3K36 and H4K20” value [11] was “no or negligible inhibitory activities; also recorded: negligible effects”, the animal survival ([12]; in words) was “significantly prolonged animal survivals” and the tumor growth ([12]; in words) was “significantly inhibited”. The tumor growth inhibition ([12]; subcutaneous osmotic pump) was over 95%, the “tumors exhibiting regression during the treatment” value ([12]; remained 1-3 mm in diameter) was “Four tumors (out of nine)” and the EC50 ([13]; MCF7, 72 h, MCF-7, 3-day treatment, read-out: Anti-proliferative activity EC50) was 910 nM. The EC50 ([13]; MCF7, 360 h, MCF-7, 15-day, read-out: EC50, 15-day treatment) was 51 nM, the “H3K79 methylation in tumor tissues” value [14] was “only significantly reduced H3K79 methylation levels; also recorded: only H3K79 methylation was significantly inhibited” and the Ki [15] was 8.4 nM. For the same compound, the IC50 [16] was about 50 nM, the “cell migration and invasion” value [5] was “more pronounced activity; also recorded: reduced cell migration and invasiveness” and the “apoptosis of MDA-MB231 cells” value ([6]; 20 nM, day 7) was 12.1%. The “sub-G1 phase cell population” value [7] was “increased sub-G1 population”, the “sub-G phase cell population after treatment” value ([7]; MDA-MB231, control 4.4%) was 21.2% and the secondary mammosphere formation [17] was “more pronounced activity; also recorded: inhibited secondary mammosphere formation”. For the same compound, the EC50 ([18]; Homo sapiens, 72 h, three DOT1L+ breast cancer cells, 3-day, read-out: EC50, 3-day treatment) was 900 to 2600 nM, the “times more active in 15-day than in the corresponding 3-day data” value ([18]; MDA-MB231, BT549, MCF-7) was 18 - 100 × and the “ALDH+ cell population” value [8] was “decreased; also recorded: reduced”. For the same compound, the EC50 ([19]; BT-549, 72 h, BT549, 3-day treatment, read-out: Anti-proliferative activity EC50) was 2600 nM, the EC50 ([19]; BT-549, 360 h, BT549, 15-day, read-out: EC50, 15-day treatment) was 29 nM and the EC50 ([20]; MDA-MB-231, 72 h, MDA-MB231, 3-day treatment, read-out: Anti-proliferative activity EC50) was 930 nM. For the same compound, the EC50 ([20]; MDA-MB-231, 360 h, MDA-MB231, 15-day, read-out: EC50, 15-day treatment) was 9 nM, the toxicities ([21]; 4 mg/kg/day for 28 days, in words) was “no obvious toxicities” and the “changes in blood cell counts, hemoglobin and body weight” value ([21]; 4 mg/kg/day, day 28, in words) was “did not cause significant changes; also recorded: no significant changes”.

In the case of `Nc1ncnc2c1ncn2[C@@H]1O[C@H](CSCC[C@H](N)C(=O)O)[C@@H](O)[C@H]1O` [SAH, S-adenosyl-homocycteine], the Ki [22] is listed as 7500 nM and the Ki [23] is listed as over 1000 nM.

From publication PMC4279401 (Oncotarget, 2014)
